Source: US9834571B2, “Compounds for inhibiting cell proliferation in EGFR-driven cancers” (ARIAD Pharmaceuticals, Inc., priority 2012, dated 2017)

Experiments:
EGFR L858R/T790M = EGFR L858R/T790M (Homo sapiens, UniProt P00533, L858R/T790M); assay: Kinase inhibitory activity against EGFR bearing the L858R/T790M double mutation; assay type: biochemical; details: 10 pt curves, 3 μM top concentration, 10 μM ATP; read-out: IC50 for kinase inhibition, EGFR L858R T790M
Method in brief: (§1)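 Singlicate 10 pt curves; top conc. 3 μM; ATP 10 μM.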

[1] = tested on: BaF3 cells expressing wildtype EGFR; assay: Antiproliferative activity (MTT) against control BaF3 cells expressing wildtype EGFR; assay type: cell-based; details: Mus musculus, BAF3 parental cells
Method in brief: (§2)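 In this screen, MTT reduction reported on proliferation of BaF3 cells dependent on mutated EGFR and of matched BaF3 cells expressing wildtype receptor.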

[2] = molecular target: human EGFR (native sequence) (Homo sapiens, UniProt P00533); assay: Kinase inhibitory activity against human EGFR (native sequence); assay type: biochemical; details: 10 pt curves, 3 μM top concentration, 10 μM ATP; read-out: IC50 for kinase inhibition, EGFR
Method in brief: as §1

EGFR L858R = EGFR L858R (Homo sapiens, UniProt P00533, L858R); assay: Kinase inhibitory activity against EGFR bearing the L858R mutation; assay type: biochemical; details: 10 pt curves, 3 μM top concentration, 10 μM ATP; read-out: IC50 for kinase inhibition, EGFR L858R
Method in brief: as §1

[3] = molecular target: T1, BaF3 cells expressing the target EGFR mutations (Homo sapiens, UniProt P00533, T790M/L858R, cells depend on it); assay: Antiproliferative activity (MTT) against BaF3 cells expressing the target EGFR mutations; assay type: cell-based; details: BAF3 EGFR L858R-T790M PURO POOL cells, read-out: IC50, BAF3 EGFR L858R-T790M PURO POOL
T1 construct: IC50, BAF3 EGFR L858R-T790M PURO POOL; other: BAF3 EGFR L858R-T790M PURO POOL cells, MTT; IC50, BAF3 EGFR L858R-T790M PURO POOL; other: BAF3 EGFR L858R-T790M PURO POOL cells; MTT
Method in brief: as §2

[4] = molecular target: T2, BaF3 cells expressing the target EGFR mutations (Homo sapiens, UniProt P00533, T790M, cells depend on it, form not given); assay: as above; assay type: cell-based; details: BAF3 EGFR DEL T790M PURO POOL cells, read-out: IC50, BAF3 EGFR DEL T790M PURO POOL
T2 construct: IC50, BAF3 EGFR DEL T790M PURO POOL; other: BAF3 EGFR DEL T790M PURO POOL cells, MTT; other: BAF3 EGFR DEL T790M PURO POOL cells; MTT
Method in brief: as §2

human EGFR (native sequence), sequence (P00533 25-1210): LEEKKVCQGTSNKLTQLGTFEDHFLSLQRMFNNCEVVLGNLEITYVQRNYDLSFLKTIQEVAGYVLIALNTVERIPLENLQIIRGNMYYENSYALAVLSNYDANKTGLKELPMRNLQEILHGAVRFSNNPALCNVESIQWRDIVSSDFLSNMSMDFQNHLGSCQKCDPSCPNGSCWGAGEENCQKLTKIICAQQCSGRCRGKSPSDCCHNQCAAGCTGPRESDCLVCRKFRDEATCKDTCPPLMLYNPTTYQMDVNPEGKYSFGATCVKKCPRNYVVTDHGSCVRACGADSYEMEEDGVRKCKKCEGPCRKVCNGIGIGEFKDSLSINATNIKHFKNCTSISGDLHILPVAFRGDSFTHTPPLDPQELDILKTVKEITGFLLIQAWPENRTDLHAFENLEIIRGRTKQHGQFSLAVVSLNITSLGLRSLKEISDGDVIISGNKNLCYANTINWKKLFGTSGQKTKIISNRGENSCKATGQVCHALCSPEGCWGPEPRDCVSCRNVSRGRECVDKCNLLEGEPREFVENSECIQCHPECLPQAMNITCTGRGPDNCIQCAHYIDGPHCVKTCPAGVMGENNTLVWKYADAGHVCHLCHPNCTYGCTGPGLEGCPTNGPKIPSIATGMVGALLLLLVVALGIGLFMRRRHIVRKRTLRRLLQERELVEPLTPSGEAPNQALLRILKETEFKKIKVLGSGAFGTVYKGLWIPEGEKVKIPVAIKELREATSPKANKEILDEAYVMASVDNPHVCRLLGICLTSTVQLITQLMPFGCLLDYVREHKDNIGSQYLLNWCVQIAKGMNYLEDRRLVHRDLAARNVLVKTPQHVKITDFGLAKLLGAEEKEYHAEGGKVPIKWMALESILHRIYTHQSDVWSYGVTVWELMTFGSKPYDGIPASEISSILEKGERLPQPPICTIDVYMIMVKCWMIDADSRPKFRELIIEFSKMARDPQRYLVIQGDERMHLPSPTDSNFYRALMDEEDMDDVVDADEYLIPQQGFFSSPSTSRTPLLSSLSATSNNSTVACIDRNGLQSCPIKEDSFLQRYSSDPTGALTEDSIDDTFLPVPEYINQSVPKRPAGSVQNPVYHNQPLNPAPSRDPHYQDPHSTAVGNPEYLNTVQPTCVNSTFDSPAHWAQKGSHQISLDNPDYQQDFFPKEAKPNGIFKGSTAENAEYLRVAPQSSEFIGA
T1 sequence (P00533 whole entry T790M/L858R): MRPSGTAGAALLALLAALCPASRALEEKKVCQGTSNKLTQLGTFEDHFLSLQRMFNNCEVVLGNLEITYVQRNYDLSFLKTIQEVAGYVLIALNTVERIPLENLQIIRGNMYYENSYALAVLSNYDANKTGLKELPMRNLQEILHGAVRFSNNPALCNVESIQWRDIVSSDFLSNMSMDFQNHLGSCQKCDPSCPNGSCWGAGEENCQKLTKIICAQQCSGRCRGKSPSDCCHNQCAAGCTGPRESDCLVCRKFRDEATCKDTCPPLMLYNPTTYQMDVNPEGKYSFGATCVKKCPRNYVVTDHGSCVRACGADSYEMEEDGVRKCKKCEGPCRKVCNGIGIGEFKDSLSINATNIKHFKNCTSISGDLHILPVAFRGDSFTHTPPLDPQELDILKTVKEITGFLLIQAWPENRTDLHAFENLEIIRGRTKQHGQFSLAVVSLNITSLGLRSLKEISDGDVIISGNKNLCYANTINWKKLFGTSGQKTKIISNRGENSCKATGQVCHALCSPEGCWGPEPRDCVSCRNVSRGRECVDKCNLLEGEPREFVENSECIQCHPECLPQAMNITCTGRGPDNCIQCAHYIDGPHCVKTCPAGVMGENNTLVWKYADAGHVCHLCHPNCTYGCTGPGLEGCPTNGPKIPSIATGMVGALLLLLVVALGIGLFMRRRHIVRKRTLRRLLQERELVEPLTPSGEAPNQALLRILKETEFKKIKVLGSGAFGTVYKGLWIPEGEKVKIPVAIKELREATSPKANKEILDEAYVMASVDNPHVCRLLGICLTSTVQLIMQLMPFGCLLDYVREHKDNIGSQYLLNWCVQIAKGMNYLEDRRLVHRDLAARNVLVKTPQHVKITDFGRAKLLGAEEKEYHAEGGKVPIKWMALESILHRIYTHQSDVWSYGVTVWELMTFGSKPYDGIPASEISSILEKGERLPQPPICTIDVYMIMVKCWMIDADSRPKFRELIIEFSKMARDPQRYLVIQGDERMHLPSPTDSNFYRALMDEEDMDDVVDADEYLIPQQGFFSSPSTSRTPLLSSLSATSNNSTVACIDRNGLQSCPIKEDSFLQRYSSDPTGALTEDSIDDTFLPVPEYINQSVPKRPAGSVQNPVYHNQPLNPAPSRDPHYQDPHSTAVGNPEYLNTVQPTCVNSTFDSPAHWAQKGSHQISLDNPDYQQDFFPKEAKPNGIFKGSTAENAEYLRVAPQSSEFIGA
EGFR L858R/T790M, sequence (P00533 25-1210 T790M/L858R): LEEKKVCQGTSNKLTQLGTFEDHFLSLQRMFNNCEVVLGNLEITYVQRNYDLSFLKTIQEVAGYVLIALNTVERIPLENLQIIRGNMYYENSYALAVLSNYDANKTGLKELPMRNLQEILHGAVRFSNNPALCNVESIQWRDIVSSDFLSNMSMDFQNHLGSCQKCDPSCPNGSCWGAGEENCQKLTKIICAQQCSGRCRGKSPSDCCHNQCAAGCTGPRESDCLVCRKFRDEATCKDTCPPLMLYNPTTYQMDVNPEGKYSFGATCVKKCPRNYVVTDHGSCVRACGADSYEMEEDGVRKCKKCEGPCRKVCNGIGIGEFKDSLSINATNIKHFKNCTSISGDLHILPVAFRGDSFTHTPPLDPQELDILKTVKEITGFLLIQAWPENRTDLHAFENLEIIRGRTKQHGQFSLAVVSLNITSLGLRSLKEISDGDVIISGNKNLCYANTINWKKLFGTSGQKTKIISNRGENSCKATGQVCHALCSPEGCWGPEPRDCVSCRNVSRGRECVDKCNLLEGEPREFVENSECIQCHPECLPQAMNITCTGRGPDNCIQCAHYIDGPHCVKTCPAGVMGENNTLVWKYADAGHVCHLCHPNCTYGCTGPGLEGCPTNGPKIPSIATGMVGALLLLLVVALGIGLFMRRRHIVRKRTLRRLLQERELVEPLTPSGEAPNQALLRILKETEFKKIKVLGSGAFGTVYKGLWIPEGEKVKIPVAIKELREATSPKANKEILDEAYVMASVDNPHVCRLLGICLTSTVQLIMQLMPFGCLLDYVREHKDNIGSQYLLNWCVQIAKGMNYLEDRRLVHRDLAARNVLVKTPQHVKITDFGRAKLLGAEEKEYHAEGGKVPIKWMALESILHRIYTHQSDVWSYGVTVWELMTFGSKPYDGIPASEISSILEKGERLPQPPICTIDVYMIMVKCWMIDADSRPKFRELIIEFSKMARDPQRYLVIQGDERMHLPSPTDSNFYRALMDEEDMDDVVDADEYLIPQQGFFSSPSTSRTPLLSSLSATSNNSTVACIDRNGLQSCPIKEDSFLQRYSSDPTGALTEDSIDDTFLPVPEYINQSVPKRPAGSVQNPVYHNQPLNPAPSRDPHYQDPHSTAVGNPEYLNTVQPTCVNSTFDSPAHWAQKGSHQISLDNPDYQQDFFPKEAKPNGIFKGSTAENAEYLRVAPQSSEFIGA
EGFR L858R, sequence (P00533 25-1210 L858R): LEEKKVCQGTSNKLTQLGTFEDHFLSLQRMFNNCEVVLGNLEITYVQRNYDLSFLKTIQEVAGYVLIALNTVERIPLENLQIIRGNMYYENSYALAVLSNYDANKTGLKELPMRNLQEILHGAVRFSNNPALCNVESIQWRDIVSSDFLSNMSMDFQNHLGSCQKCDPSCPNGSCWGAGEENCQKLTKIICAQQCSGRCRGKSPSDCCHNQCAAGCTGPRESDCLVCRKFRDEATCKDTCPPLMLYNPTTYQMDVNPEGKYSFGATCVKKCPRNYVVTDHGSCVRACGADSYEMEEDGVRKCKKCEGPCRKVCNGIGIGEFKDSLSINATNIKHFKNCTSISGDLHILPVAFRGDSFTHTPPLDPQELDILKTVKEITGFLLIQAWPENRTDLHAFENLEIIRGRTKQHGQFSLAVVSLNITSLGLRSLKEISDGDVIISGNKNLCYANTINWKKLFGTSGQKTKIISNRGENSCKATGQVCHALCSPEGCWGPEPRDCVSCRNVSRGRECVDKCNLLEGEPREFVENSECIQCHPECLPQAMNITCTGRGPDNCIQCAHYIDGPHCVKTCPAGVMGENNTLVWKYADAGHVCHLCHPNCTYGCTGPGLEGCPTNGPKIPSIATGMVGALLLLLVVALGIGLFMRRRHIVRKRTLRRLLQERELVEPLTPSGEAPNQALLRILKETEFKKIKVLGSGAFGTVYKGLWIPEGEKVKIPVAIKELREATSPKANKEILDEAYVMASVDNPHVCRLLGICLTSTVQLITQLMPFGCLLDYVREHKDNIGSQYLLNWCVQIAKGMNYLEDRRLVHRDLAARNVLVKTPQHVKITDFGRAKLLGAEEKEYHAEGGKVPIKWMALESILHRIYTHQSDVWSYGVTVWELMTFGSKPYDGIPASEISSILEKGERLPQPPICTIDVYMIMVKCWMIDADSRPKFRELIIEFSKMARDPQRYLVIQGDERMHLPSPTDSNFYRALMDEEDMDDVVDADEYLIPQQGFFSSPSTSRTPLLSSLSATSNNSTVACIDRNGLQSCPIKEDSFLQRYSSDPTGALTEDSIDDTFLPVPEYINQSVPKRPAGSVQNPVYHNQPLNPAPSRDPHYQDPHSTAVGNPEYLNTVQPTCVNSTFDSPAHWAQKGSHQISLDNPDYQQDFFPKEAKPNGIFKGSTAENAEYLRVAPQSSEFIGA

SMILES | IC50 (EGFR L858R/T790M) [nM] | IC50 [1] [nM] | IC50 [2] [nM] | IC50 (EGFR L858R) [nM] | GI50 [3] [nM] | GI50 [4] [nM]
Cc1ccc(NC(=O)CCl)cc1Nc1ncc(Cl)c(Nc2ccccc2P(C)(C)=O)n1 [Example 148, 2-chloro-N-(3-((5-chloro-4-((2-(dimethylphosphoryl)phenyl)amino)pyrimidin-2-yl)amino)-4-methylphenyl)acetamide] | < 50 | ≥ 250 | < 50 | < 50 | < 50 | < 50
COc1cc(F)c(NC(=O)CCl)cc1Nc1ncc(Cl)c(Nc2ccccc2P(C)(C)=O)n1 [Example 149, 2-chloro-N-(5-((5-chloro-4-((2-(dimethylphosphoryl)phenyl)amino)pyrimidin-2-yl)amino)-2-fluoro-4-methoxyphenyl)acetamide] | < 50 | ≥ 250 | < 50 | < 50 | < 50 | < 50
COc1ccc(NS(=O)(=O)CCl)cc1Nc1ncc(Cl)c(Nc2ccccc2P(C)(C)=O)n1 [Example 150, 1-chloro-N-(3-((5-chloro-4-((2-(dimethylphosphoryl)phenyl)amino)pyrimidin-2-yl)amino)-4-methoxyphenyl)methanesulfonamide] | ≥ 250 | ≥ 250 | ≥ 250 | ≥ 250 | ≥ 250 | ≥ 250
C=CC(=O)Nc1cc(Nc2ncc(Cl)c(Nc3ccccc3P(C)(C)=O)n2)c(C)cc1C#CCN(C)C [Example 151, N-(5-((5-chloro-4-((2-(dimethylphosphoryl)phenyl)amino)pyrimidin-2-yl)amino)-2-(3-(dimethylamino)prop-1-yn-1-yl)-4-methylphenyl)acrylamide] | < 50 | ≥ 250 | < 50 | < 50 | < 50 | < 50
C=CC(=O)Nc1cc(Nc2ncc(Cl)c(Nc3ccccc3P(C)(C)=O)n2)c(CC)cc1C#CCN(C)C [Example 152, N-(5-((5-chloro-4-((2-(dimethylphosphoryl)phenyl)amino)pyrimidin-2-yl)amino)-2-(3-(dimethylamino)prop-1-yn-1-yl)-4-ethylphenyl)acrylamide] | < 50 | ≥ 250 | < 50 | < 50 | < 50 | < 50
C=CC(=O)Nc1cc(Nc2ncc(Cl)c(Nc3ccccc3S(=O)(=O)C(C)C)n2)c(OC)cc1C#CCN(C)C [Example 153, N-(5-((5-chloro-4-((2-(isopropylsulfonyl)phenyl)amino)pyrimidin-2-yl)amino)-2-(3-(dimethylamino)prop-1-yn-1-yl)-4-methoxyphenyl)acrylamide] | < 50 | ≥ 250 | < 50 | < 50 | < 50 | < 50
C=CC(=O)Nc1cc(Nc2ncc(Cl)c(Nc3ccccc3P(C)(C)=O)n2)c(OC)cc1C#CC(C)(C)N(CC)CC [Example 154, N-(5-((5-chloro-4-((2-(dimethylphosphoryl)phenyl)amino)pyrimidin-2-yl)amino)-2-(3-(diethylamino)-3-methylbut-1-yn-1-yl)-4-methoxyphenyl)acrylamide] | < 50 | ≥ 250 | < 50 | < 50 | < 50 | < 50
C=CC(=O)Nc1cc(Nc2ncc(Cl)c(Nc3ccccc3P(C)(C)=O)n2)c(OC)cc1C#CC(C)(C)N(C)C [Example 155, N-(5-((5-chloro-4-((2-(dimethylphosphoryl)phenyl)amino)pyrimidin-2-yl)amino)-2-(3-(dimethylamino)-3-methylbut-1-yn-1-yl)-4-methoxyphenyl)acrylamide] | < 50 | ≥ 250 | < 50 | < 50 | < 50 | < 50
C=CC(=O)Nc1cc(Nc2ncc(Cl)c(Nc3ccccc3P(C)(C)=O)n2)c(Cl)cc1C#CCN(C)C [Example 156, N-(4-chloro-5-((5-chloro-4-((2-(dimethylphosphoryl)phenyl)amino)pyrimidin-2-yl)amino)-2-(3-(dimethylamino)prop-1-yn-1-yl)phenyl)acrylamide] | < 50 | ≥ 250 | < 50 | < 50 | < 50 | < 50
C=CC(=O)Nc1cc(Nc2ncc(Cl)c(Nc3ccccc3P(C)(C)=O)n2)c(OC)cc1C#CCN1CCCC1 [Example 157, N-(5-((5-chloro-4-((2-(dimethylphosphoryl)phenyl)amino)pyrimidin-2-yl)amino)-4-methoxy-2-(3-(pyrrolidin-1-yl)prop-1-yn-1-yl)phenyl)acrylamide] | < 50 | ≥ 250 | < 50 | < 50 | < 50 | < 50
C=CC(=O)Nc1cc(Nc2ncc(Cl)c(Nc3ccccc3P(C)(C)=O)n2)c(OC)cc1C#CCN(C(C)C)C(C)C [Example 158, N-(5-((5-chloro-4-((2-(dimethylphosphoryl)phenyl)amino)pyrimidin-2-yl)amino)-2-(3-(diisopropylamino)prop-1-yn-1-yl)-4-methoxyphenyl)acrylamide] | < 50 | ≥ 250 | < 50 | < 50 | < 50 | < 50
C=CC(=O)Nc1cc(Nc2ncc(Cl)c(Nc3ccccc3P(C)(C)=O)n2)c(OC)cc1C#CCN1CCN(C)CC1 [Example 159, N-(5-((5-chloro-4-((2-(dimethylphosphoryl)phenyl)amino)pyrimidin-2-yl)amino)-4-methoxy-2-(3-(4-methylpiperazin-1-yl)prop-1-yn-1-yl)phenyl)acrylamide] | < 50 | ≥ 250 | < 50 | < 50 | 101 to 250 | < 50
C=CC(=O)Nc1cc(Nc2ncc(Cl)c(Nc3ccccc3P(C)(C)=O)n2)c(OC)cc1C#CCNC [Example 160, N-(5-((5-chloro-4-((2-(dimethylphosphoryl)phenyl)amino)pyrimidin-2-yl)amino)-4-methoxy-2-(3-(methylamino)prop-1-yn-1-yl)phenyl)acrylamide] | < 50 | ≥ 250 | < 50 | < 50 | < 50 | < 50
C=CC(=O)Nc1cc(Nc2ncc(Cl)c(Nc3ccccc3P(C)(C)=O)n2)c(OC)cc1C#CCN(C)CCOC [Example 161, N-(5-((5-chloro-4-((2-(dimethylphosphoryl)phenyl)amino)pyrimidin-2-yl)amino)-4-methoxy-2-(3-((2-methoxyethyl)(methyl)amino)prop-1-yn-1-yl)phenyl)acrylamide] | < 50 | ≥ 250 | < 50 | < 50 | < 50 | < 50
C=CC(=O)Nc1cc(Nc2ncc(Cl)c(Nc3ccccc3P(C)(C)=O)n2)c(OC)cc1C#CCN(C)CC [Example 162, N-(5-((5-chloro-4-((2-(dimethylphosphoryl)phenyl)amino)pyrimidin-2-yl)amino)-2-(3-(ethyl(methyl)amino)prop-1-yn-1-yl)-4-methoxyphenyl)acrylamide] | < 50 | ≥ 250 | < 50 | < 50 | < 50 | < 50
C=CC(=O)Nc1ccc(OC)c(Nc2cc(Nc3ncccc3P(C)(C)=O)ncn2)c1 [Example 163, N-(3-((6-((3-(dimethylphosphoryl)pyridin-2-yl)amino)pyrimidin-4-yl)amino)-4-methoxyphenyl)acrylamide] | 101 to 250 | ≥ 250 | 50 to 100 | < 50 | ≥ 250 | ≥ 250
C=CC(=O)Nc1ccc(OC)c(Nc2ncc(Cl)c(Nc3cnccc3P(C)(C)=O)n2)c1 [Example 164, N-(3-((5-chloro-4-((4-(dimethylphosphoryl)pyridin-3-yl)amino)pyrimidin-2-yl)amino)-4-methoxyphenyl)acrylamide] | < 50 | ≥ 250 | ≥ 250 | < 50 | ≥ 250 | 101 to 250
C=CC(=O)Nc1cc(Nc2ncc(Cl)c(Nc3ccccc3P(C)(C)=O)n2)c(OC)cc1C#CCN1CCCCCC1 [Example 165, N-(2-(3-(azepan-1-yl)prop-1-yn-1-yl)-5-((5-chloro-4-((2-(dimethylphosphoryl)phenyl)amino)pyrimidin-2-yl)amino)-4-methoxyphenyl)acrylamide] | < 50 | ≥ 250 | < 50 | < 50 | < 50 | < 50
